Columns and labels:
AR [1] = test: AR transactivation reporter assay (CAT/luciferase) (Example 3); format: cell-based, human
Protocol: 21. […] Further adding GAL-DBD (lane 1 and 2) or GAL-DBD-ARA70N with wild type (lane 3 and 4) or mutant (lane 5-8) FXXLF motifs to the cells. (B) Effect of wild type and mutant FXXLF motifs ARA70N on AR transactivation in COS-1 cells. […] 0.5 ng SV40-Renila Luciferase was used as an internal control. Relative luciferase activity was calculated by dual luciferase system.
411. Human prostate cancer DU145 and PC-3 cells were maintained in Dulbecco's Minimum Essential Medium (DMEM) containing penicillin (25 U/ml), streptomycin (25 μg/ml), and 5% fetal calf serum (FCS). Human LNCaP cells were maintained in RPMI containing penicillin (25 U/ml), streptomycin (25 μg/ml), and 10% FCS. Transfections were performed using the calcium phosphate precipitation method, as previously described (Dynlacht et al. (1991) Cell 66, 563-576). Briefly, 4×10^5 cells were plated on 60-mm dishes 24 hours before transfection, and the medium was changed to DMEM with 5% charcoal-dextran stripped FCS (CS-FBS) one hour before transfection. Transfection medium contained a constant amount of reporter plasmid and indicated amounts of pSG5-receptor, ARA70, or pCMX-GAL fusion construct using pSG5 as a carrier to provide equal amounts of transfected DNA. […] After another 24 hours, the cells were harvested for chloramphenicol transferase (CAT) or luciferase assays. At least three independent experiments were carried out in each case. Superfect (Qiagen) was used for transfection in LNCaP cells. The transfection conditions followed the manufacturer's protocol. Cell extracts were prepared and assayed for CAT or luciferase activity (Promega) and normalized against β-galactosidase or Renilla luciferase activity as indicated. All data were the mean±SD results from three to six independent experiments.
Target sequence in this assay (P10275 whole entry): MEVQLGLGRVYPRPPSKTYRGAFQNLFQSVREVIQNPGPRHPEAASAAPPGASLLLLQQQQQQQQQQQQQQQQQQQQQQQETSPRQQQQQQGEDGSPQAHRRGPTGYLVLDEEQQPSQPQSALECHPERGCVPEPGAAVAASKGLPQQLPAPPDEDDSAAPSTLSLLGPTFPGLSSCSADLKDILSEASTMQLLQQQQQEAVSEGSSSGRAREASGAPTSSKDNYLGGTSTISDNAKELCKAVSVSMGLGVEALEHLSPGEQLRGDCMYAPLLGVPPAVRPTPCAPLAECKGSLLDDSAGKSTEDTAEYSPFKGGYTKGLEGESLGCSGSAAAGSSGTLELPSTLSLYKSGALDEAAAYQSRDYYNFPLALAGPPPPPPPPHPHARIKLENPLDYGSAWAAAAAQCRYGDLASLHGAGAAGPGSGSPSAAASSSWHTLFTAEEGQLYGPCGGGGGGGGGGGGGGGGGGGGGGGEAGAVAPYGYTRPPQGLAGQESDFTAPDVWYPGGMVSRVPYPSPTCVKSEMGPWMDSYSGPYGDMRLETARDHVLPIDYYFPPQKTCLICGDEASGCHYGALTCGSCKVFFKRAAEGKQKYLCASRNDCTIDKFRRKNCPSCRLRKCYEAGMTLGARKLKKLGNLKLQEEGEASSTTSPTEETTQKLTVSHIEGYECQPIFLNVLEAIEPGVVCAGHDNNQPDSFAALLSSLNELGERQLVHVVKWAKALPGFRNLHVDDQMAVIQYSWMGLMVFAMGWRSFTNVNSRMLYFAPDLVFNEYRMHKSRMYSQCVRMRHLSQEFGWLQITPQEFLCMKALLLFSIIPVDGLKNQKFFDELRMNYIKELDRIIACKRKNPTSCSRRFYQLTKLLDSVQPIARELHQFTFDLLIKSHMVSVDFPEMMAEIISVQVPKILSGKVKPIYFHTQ

AR [2] = test: Immunocytofluorescence, semi-quantitative nuclear AR staining in COS-1 cells; format: cell-based; details: 10 nM DHT, p<0.0005
Protocol: 415. COS-1 cells were seeded on two-well Labtek II slides (Nalge) 24 hours before transfection. Two micrograms of DNA per 10^5 cell was transfected with the AR, with or without full length ARA70 (ARA70-FL) using FuGENE6 transfection reagent (Roche). […] Immunostaining was performed by incubation with anti-AR polyclonal antibody (NH27) or anti-ARA70 mouse monoclonal antibody (CC70), followed by incubation with either fluorescence-conjugated goat anti-rabbit or anti-mouse antibodies (ICN). The red signal represents the AR and the green signal represents ARA70.
416. Three hundred cells with normal morphologies and clear AR nuclear translocation were scored for AR staining using a fluorescence microscope. Cells were scored on a scale of one to five, with one representing the lowest AR staining intensity above the background level. The cells were then separated into two groups based on the presence or absence of ARA70.
417. The mean AR staining intensity and standard deviation were then calculated for the ARA70 negative and positive populations. Using […], a two sample t-test (assuming unequal variances) was then performed to determine if the difference in the mean AR staining intensities in the two populations was statistically significant (α=0.05).
Target sequence in this assay (P10275 with tags, fused parts or gaps DEL79-80/DUP473-473): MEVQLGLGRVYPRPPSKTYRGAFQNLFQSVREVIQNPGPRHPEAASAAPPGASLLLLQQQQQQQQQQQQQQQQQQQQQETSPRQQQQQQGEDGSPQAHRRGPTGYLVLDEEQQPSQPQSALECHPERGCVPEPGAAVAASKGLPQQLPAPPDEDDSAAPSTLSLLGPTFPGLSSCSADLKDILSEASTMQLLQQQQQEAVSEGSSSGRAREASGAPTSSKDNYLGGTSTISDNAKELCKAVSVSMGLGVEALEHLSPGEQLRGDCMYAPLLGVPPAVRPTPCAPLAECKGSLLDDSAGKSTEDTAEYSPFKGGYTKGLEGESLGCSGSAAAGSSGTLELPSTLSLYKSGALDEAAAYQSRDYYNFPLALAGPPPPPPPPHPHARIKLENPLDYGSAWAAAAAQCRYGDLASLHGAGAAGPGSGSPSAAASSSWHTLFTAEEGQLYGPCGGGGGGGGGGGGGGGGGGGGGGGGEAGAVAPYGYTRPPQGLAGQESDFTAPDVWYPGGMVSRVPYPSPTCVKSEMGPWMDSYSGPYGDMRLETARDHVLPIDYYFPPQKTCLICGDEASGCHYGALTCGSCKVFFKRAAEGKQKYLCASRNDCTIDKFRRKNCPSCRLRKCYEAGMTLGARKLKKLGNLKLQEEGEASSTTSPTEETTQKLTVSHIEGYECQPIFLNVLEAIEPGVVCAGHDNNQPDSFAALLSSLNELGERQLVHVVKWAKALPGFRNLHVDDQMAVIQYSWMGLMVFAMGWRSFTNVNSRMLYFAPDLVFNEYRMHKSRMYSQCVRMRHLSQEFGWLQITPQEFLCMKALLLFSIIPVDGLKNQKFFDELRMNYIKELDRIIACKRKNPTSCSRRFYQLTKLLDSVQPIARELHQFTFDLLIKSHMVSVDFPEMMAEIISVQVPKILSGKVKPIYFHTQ

AR [3] = details: CV-1 cells; reported by others; cited from earlier work
Target sequence in this assay (P10275 whole entry): as the sequence (P10275 whole entry) above

AR [4] = test: AR transactivation dual-luciferase assay with supervillin (Example 6); format: cell-based, human
Protocol: In AR transactivation activity assays, transfections were performed using SuperFect (Qiagen, Chatsworth, Calif.) following protocols described in manual provided by Qiagen. Briefly, cells were plated on 35 mm dishes and after 24 h were transfected using the SuperFect kit. The total DNA amount was adjusted to 2 μg with pSG5 or pEGFP vectors. The medium was changed to DMEM with 10% CD-FBS 2 h after transfection. After 24 h, the DMEM with 10% CD-FBS was changed again, and the cells were treated with various steroids. Cells were harvested after 24 h for dual-luciferase assay as described in protocol provided by Promega. At least three independent experiments were carried out in each case.
Target sequence in this assay (P10275 with tags, fused parts or gaps DEL79-80/DUP473-473): as the sequence (P10275 with tags, fused parts or gaps DEL79-80/DUP473-473) above

## ARA70: ligand-enhanced AR coregulator, full length ARA70
AR [1]; COS-1 cells
  enhancement of AR transactivation: 8 fold
AR [1]; CV-1 cells
  enhancement of AR transactivation: 8 fold
AR [1]; DU145 cells, depending on the ratio of AR to ARA70
  enhancement of AR transactivation: 8-10 fold
AR [1]; PC-3 cells
  enhancement of AR transactivation: 6 fold
AR [2]
  nuclear AR staining intensity: significantly enhances nuclear AR staining intensity
AR [3]
  enhancement of AR activity: 2-3 fold

## SV: supervillin, 205 kDa actin binding protein; bovine SV (a.a. 1-1792) used in reporter assays
AR [4]; C2C12 muscle cells, bSV:AR plasmids 25:1 and 50:1, DHT
  enhancement of AR transactivation: 3-8 fold
AR [4]; COS-1 cells, 10 nM DHT, MMTV-Luc
  AR transactivation with EGFP-bSV construct: 132 fold
AR [4]; COS-1 cells, 10 nM steroid
  effect on Adiol induced AR transactivation: slightly enhances
  effect on E2- or HF-induced AR transactivation: marginal effect
  effect on T and DHT induced AR transactivation: significantly enhances
